Experimental data taken from ChEMBL document CHEMBL1781986, “Structure-activity relationships of pyrrole based S-nitrosoglutathione reductase inhibitors: pyrrole regioisomers and propionic acid replacement” (Bioorg Med Chem Lett, 2011).
Activity calls are given as the source filed them. The calls are words filed in the database; no cut-off is given here.

Columns and labels:
[1] = molecular target: T1, Type-1 angiotensin II receptor (Homo sapiens) (UniProt P30556); experiment: Inhibition of human recombinant AT1 receptor at 10 uM by radioligand binding assay
T1 sequence (whole entry): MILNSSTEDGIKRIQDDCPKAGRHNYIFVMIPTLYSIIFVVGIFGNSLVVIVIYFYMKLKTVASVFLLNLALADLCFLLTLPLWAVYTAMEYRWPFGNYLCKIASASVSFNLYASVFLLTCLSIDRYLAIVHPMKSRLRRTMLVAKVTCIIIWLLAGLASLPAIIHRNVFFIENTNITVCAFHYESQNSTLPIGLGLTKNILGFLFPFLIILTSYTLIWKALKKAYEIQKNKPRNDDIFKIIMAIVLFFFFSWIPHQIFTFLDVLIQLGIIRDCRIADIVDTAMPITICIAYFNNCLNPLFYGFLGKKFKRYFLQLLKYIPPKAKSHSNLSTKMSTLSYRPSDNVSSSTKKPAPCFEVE

[2] = tested on: 5-hydroxytryptamine receptor 2A; experiment: Inhibition of human recombinant 5HT2A receptor at 10 uM by radioligand binding assay
Homo sapiens [3] = species on record: Homo sapiens; experiment: Inhibition of human recombinant BZD receptor at 10 uM by radioligand binding assay
[4] = molecular target: Voltage-gated L-type calcium channel (Homo sapiens, UniProt Q13936+Q13698+Q01668+O60840); experiment: Inhibition of human recombinant L-type Ca2+ channel at 10 uM by radioligand binding assay
[5] = molecular target: T2, Cholecystokinin receptor type A (Homo sapiens) (UniProt P32238); experiment: Inhibition of human recombinant CCK1 receptor at 10 uM by radioligand binding assay
T2 sequence (whole entry): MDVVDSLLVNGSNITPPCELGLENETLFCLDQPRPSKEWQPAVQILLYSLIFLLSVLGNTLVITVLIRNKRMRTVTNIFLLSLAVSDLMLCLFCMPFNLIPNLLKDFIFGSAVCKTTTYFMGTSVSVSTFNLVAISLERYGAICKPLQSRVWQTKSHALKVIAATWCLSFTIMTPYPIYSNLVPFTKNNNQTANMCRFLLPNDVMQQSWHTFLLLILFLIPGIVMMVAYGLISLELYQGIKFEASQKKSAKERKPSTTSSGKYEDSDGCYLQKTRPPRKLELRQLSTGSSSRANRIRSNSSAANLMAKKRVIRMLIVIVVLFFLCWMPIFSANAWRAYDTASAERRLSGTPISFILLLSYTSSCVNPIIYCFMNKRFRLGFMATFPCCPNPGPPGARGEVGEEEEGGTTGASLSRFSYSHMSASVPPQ

[6] = molecular target: Melatonin receptor type 1A (Homo sapiens) (UniProt P48039); experiment: Inhibition of human recombinant MT1 receptor at 10 uM by radioligand binding assay
[7] = molecular target: Sodium-dependent serotonin transporter (Homo sapiens) (UniProt P31645); experiment: Inhibition of human recombinant 5HT transporter at 10 uM by radioligand binding assay
[8] = molecular target: Nociceptin receptor (Homo sapiens) (UniProt P41146); experiment: Inhibition of human recombinant NOP receptor at 10 uM by radioligand binding assay
[9] = molecular target: T3, C-C chemokine receptor type 1 (Homo sapiens) (UniProt P32246); experiment: Inhibition of human recombinant CCR1 receptor at 10 uM by radioligand binding assay
T3 sequence (whole entry): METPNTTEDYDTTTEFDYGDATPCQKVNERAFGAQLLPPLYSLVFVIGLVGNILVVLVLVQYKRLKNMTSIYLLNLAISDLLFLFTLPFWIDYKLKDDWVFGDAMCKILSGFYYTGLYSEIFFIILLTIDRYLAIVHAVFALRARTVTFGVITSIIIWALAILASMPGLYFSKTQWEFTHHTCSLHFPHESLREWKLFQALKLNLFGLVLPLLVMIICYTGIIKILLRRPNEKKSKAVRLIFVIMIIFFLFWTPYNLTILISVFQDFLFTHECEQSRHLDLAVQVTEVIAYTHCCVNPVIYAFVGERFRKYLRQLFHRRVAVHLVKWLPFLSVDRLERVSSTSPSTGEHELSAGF

[10] = molecular target: Mu-type opioid receptor (Homo sapiens) (UniProt P35372); experiment: Inhibition of human recombinant MOP receptor at 10 uM by radioligand binding assay
[11] = molecular target: D(1A) dopamine receptor (Homo sapiens) (UniProt P21728); experiment: Inhibition of human recombinant D1 receptor at 10 uM by radioligand binding assay
Homo sapiens [12] = species on record: Homo sapiens; experiment: Inhibition of human recombinant chloride channel at 10 uM by radioligand binding assay
[13] = molecular target: Small conductance calcium-activated potassium channel protein 1 (Homo sapiens) (UniProt Q92952); experiment: Inhibition of human recombinant Skca channel at 10 uM by radioligand binding assay
[14] = molecular target: Neurotensin receptor type 1 (Homo sapiens) (UniProt P30989); experiment: Inhibition of human recombinant NTS1 receptor at 10 uM by radioligand binding assay
[15] = molecular target: Sodium-dependent dopamine transporter (Homo sapiens) (UniProt Q01959); experiment: Inhibition of human recombinant DAT at 10 uM by radioligand binding assay
[16] = molecular target: T4, 5-hydroxytryptamine receptor 1A (Homo sapiens) (UniProt P08908); experiment: Inhibition of human recombinant 5HT1A receptor at 10 uM by radioligand binding assay
T4 sequence (whole entry): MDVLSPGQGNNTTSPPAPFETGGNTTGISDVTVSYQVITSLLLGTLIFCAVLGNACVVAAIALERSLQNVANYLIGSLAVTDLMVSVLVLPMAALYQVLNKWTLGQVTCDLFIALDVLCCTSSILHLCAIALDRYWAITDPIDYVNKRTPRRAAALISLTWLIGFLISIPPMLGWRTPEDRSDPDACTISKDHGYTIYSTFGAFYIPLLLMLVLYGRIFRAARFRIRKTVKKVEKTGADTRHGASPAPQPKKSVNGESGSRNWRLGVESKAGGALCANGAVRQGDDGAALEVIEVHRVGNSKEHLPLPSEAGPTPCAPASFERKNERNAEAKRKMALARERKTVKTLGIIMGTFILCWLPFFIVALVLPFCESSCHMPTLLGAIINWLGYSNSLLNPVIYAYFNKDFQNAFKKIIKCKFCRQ

[17] = molecular target: Histamine H1 receptor (Homo sapiens) (UniProt P35367); experiment: Inhibition of human recombinant H1 receptor at 10 uM by radioligand binding assay
[18] = molecular target: Beta-1 adrenergic receptor (Homo sapiens) (UniProt P08588); experiment: Inhibition of human recombinant beta1 receptor at 10 uM by radioligand binding assay
Chain of Beta-1 adrenergic receptor (Homo sapiens) (P08588 whole entry, looked up): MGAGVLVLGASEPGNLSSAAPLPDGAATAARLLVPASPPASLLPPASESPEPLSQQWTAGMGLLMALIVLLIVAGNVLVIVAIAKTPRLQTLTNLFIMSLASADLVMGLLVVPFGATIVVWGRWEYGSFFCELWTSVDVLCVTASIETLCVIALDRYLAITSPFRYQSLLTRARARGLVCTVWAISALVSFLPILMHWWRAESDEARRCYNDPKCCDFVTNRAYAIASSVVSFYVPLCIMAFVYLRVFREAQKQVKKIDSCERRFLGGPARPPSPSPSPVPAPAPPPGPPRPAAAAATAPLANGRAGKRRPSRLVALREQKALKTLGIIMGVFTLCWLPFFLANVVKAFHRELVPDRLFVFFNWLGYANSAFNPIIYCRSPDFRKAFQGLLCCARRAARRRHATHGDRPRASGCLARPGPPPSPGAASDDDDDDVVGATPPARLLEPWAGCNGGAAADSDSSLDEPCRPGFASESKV

Chain of D(1A) dopamine receptor (Homo sapiens) (P21728 whole entry): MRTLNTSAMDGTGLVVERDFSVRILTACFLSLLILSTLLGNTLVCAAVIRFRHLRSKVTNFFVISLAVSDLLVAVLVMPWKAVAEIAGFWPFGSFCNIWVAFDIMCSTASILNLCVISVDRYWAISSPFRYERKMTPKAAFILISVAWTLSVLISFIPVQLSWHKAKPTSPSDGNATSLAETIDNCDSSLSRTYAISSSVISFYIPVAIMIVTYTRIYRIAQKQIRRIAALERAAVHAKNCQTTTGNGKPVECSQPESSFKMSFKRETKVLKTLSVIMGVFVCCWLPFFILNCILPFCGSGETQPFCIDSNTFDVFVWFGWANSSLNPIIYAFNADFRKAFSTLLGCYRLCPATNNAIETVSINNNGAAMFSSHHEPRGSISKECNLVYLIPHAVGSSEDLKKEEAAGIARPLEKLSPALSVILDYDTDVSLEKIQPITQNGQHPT
Chain of Sodium-dependent serotonin transporter (Homo sapiens) (P31645 whole entry, looked up): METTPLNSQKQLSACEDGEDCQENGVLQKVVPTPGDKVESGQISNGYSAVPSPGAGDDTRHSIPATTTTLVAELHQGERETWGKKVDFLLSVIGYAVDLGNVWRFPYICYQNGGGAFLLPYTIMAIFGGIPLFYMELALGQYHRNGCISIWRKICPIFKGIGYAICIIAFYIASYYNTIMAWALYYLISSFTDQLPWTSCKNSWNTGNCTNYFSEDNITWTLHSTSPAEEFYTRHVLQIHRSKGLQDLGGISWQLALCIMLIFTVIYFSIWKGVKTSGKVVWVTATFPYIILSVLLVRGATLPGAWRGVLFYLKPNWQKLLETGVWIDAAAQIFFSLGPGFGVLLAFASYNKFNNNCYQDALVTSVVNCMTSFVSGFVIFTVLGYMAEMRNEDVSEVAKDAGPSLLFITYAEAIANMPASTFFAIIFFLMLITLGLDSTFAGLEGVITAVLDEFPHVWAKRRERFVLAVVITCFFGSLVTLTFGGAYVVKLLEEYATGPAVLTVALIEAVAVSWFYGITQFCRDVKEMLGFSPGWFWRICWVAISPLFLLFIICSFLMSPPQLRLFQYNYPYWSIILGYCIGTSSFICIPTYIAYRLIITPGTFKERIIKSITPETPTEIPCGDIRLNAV
Chain of Histamine H1 receptor (Homo sapiens) (P35367 whole entry): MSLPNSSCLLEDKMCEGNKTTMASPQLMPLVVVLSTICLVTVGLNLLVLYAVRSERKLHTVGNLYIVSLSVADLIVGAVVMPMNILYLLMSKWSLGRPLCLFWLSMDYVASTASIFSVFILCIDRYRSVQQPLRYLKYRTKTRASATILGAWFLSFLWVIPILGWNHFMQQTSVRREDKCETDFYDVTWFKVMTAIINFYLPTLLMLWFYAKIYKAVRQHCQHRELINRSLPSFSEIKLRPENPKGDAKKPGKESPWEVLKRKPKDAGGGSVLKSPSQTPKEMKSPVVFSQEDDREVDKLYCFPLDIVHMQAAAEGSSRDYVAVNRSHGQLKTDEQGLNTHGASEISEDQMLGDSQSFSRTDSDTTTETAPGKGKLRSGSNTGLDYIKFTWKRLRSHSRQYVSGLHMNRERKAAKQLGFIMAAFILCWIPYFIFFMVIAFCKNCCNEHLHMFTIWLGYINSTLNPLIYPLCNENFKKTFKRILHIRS
Chain of Neurotensin receptor type 1 (Homo sapiens) (P30989 whole entry): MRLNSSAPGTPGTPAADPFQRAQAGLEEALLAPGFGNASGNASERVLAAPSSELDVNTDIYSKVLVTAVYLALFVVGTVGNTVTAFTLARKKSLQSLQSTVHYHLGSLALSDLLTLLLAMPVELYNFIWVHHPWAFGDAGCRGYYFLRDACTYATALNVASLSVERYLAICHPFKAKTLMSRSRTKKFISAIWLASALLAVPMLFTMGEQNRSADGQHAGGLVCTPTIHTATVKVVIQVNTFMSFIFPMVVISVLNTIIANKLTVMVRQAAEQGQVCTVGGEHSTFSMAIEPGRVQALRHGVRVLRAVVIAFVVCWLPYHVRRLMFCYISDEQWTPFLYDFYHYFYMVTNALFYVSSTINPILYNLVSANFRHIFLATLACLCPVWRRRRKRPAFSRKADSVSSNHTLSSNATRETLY
Chain of Melatonin receptor type 1A (Homo sapiens) (P48039 whole entry): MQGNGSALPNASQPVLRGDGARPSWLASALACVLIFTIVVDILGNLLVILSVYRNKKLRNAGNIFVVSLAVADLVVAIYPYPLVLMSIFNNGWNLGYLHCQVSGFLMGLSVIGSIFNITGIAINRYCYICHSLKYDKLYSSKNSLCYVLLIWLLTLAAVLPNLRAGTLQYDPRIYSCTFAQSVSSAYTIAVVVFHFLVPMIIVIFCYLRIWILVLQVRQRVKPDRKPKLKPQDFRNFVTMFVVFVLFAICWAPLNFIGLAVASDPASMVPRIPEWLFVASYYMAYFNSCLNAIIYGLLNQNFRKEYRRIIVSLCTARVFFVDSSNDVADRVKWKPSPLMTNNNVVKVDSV
Chain of Small conductance calcium-activated potassium channel protein 1 (Homo sapiens) (Q92952 whole entry): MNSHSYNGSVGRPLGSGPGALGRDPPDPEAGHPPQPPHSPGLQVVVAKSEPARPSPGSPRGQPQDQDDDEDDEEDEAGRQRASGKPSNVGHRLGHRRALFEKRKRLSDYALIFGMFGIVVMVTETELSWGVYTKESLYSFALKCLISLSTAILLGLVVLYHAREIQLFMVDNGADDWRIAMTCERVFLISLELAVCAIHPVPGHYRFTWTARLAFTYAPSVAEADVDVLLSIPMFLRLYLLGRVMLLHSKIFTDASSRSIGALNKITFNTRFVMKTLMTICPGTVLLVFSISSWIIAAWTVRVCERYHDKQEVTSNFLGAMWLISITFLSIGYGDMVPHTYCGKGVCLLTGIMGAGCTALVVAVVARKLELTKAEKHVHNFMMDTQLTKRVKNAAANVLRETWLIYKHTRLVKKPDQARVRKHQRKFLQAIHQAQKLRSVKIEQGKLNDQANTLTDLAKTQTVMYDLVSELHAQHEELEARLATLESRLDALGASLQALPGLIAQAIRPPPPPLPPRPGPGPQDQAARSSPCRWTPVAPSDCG
Chain of Mu-type opioid receptor (Homo sapiens) (P35372 whole entry): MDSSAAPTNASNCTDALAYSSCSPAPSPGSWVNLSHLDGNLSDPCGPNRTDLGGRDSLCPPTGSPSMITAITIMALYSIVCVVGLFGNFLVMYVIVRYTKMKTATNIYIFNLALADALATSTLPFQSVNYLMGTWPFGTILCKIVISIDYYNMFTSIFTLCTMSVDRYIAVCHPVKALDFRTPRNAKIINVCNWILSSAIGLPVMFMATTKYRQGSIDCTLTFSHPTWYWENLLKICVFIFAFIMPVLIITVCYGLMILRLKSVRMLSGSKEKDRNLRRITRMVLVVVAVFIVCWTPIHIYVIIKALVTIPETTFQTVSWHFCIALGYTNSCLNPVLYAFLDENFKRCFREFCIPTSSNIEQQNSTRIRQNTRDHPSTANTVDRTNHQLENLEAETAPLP
Chain of Sodium-dependent dopamine transporter (Homo sapiens) (Q01959 whole entry): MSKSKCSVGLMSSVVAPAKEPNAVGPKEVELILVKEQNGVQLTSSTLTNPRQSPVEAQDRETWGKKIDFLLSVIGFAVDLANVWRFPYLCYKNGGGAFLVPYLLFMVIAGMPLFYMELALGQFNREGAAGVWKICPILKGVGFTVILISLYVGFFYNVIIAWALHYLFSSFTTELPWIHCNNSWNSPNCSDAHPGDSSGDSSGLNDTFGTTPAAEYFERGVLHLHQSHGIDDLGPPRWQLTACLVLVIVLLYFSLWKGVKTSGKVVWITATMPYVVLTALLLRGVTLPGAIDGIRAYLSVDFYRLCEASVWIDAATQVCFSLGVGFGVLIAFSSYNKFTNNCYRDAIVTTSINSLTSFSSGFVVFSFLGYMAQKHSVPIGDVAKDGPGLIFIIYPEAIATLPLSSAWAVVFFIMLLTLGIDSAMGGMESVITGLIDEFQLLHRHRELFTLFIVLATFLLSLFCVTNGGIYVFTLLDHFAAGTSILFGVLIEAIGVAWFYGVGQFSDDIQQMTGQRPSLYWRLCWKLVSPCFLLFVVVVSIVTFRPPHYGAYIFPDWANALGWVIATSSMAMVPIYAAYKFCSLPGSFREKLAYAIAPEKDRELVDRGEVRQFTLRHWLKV
Chain of Nociceptin receptor (Homo sapiens) (P41146 whole entry): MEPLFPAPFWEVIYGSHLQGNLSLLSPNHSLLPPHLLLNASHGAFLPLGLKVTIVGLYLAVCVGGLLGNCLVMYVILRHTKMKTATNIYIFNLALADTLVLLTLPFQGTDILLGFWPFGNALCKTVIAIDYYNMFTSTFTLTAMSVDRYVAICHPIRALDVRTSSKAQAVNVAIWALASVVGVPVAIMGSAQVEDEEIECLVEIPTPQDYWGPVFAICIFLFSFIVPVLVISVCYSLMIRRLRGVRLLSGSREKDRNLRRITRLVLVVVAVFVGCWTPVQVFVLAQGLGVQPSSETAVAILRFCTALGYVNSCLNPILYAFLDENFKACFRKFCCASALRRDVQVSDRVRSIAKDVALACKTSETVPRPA

inhibition [1]	inhibition [2]	inhibition (Homo sapiens [3])	inhibition (INH) [4]	inhibition [5]	inhibition [6]	inhibition [7]	inhibition [8]	inhibition [9]	inhibition [10]	inhibition [11]	inhibition (Homo sapiens [12])	inhibition [13]	inhibition [14]	inhibition [15]	inhibition [16]	inhibition [17]	inhibition [18]	Compound
inactive	inactive	inactive	Not Active	inactive	inactive	inactive	inactive	inactive	inactive	inactive	inactive	inactive	inactive	inactive	inactive	inactive	inactive	Cc1cc(C(N)=O)ccc1-c1c(-c2ccc(-n3ccnc3)cc2)ccn1CCC(=O)O
inactive	–	inactive	Not Active	inactive	inactive	inactive	inactive	inactive	inactive	inactive	inactive	inactive	inactive	inactive	inactive	inactive	inactive	Cc1cc(C(N)=O)ccc1-n1c(CCC(=O)O)ccc1-c1ccc(-n2ccnc2)cc1 [N6022]
Active	Active	Active	Active	Active	Active	Active	Active	Active	Active	Active	Active	Active	Active	Active	Active	Active	Active	COc1ccc(-c2ccn(-c3ccc(C(=O)O)c(O)c3)c2-c2ccc(C(N)=O)cc2C)cc1
inactive	inactive	inactive	Not Active	inactive	inactive	inactive	inactive	inactive	inactive	inactive	inactive	inactive	inactive	inactive	inactive	inactive	inactive	Cc1cc(C(N)=O)ccc1-c1c(CCC(=O)O)ccn1-c1ccc(-n2ccnc2)cc1
Active	Active	Active	Active	Active	Active	Active	Active	Active	Active	Active	Active	Active	Active	Active	Active	Active	Active	COc1ccc(-c2ccn(-c3ccc(O)c([N+](=O)[O-])c3)c2-c2ccc(C(N)=O)cc2C)cc1
